Results as given in the NIST ThermoML archive (doi:10.1016/j.jct.2019.03.025).

Test: xn = mol fraction of the nth substance listed
Settings: Liquid, Vibrating tube method

Cc1cccc(C)c1 [1,3-dimethylbenzene] + CCCCCCCCCC
mass density [kg/m3]
Settings	x2 = 0	x2 = 0.2005	x2 = 0.3999	x2 = 0.603	x2 = 0.7998
333.15 K, 100 kPa	829	791.1	760.5	735.9	716.6
333.15 K, 1000 kPa	829.8	791.9	761.3	736.7	717.4
333.15 K, 3000 kPa	831.7	793.8	763.3	738.7	719.4
333.15 K, 5000 kPa	833.4	795.6	765.1	740.5	721.2
333.15 K, 10000 kPa	837.6	799.9	769.5	744.9	725.7
333.15 K, 15000 kPa	841.6	804.1	773.7	749.2	729.9
333.15 K, 20000 kPa	845.6	808.1	777.7	753.2	733.9
333.15 K, 25000 kPa	849.3	811.9	781.4	756.9	737.7
333.15 K, 30000 kPa	852.8	815.4	785	760.5	741.3
333.15 K, 35000 kPa	856.2	818.9	788.4	763.9	744.7
333.15 K, 40000 kPa	859.7	822.4	792	767.4	748.2
333.15 K, 50000 kPa	866	828.7	798.2	773.7	754.4
333.15 K, 60000 kPa	871.9	834.6	804.2	779.6	760.4
343.15 K, 100 kPa	820	782.3	752	727.6	708.4
343.15 K, 1000 kPa	821.1	783.5	753.1	728.7	709.4
343.15 K, 3000 kPa	823	785.4	755.1	730.7	711.5
343.15 K, 5000 kPa	825	787.5	757.2	732.8	713.6
343.15 K, 10000 kPa	829.4	792	761.8	737.5	718.3
343.15 K, 15000 kPa	833.6	796.4	766.1	741.8	722.6
343.15 K, 20000 kPa	837.9	800.7	770.5	746.2	727
343.15 K, 25000 kPa	841.7	804.6	774.3	750	730.9
343.15 K, 30000 kPa	845.5	808.4	778.2	753.9	734.7
343.15 K, 35000 kPa	849.2	812.1	781.9	757.6	738.4
343.15 K, 40000 kPa	852.5	815.5	785.3	761	741.8
343.15 K, 50000 kPa	859.1	822.1	791.9	767.6	748.5
343.15 K, 60000 kPa	865	828.1	797.8	773.4	754.2
353.15 K, 100 kPa	811.3	773.9	743.8	719.6	700.5
353.15 K, 1000 kPa	812.2	774.8	744.7	720.5	701.4
353.15 K, 3000 kPa	814.3	777.1	747	722.8	703.7
353.15 K, 5000 kPa	816.2	779.1	749	724.8	705.8
353.15 K, 10000 kPa	821	784	753.9	729.8	710.8
353.15 K, 15000 kPa	825.7	788.7	758.7	734.6	715.6
353.15 K, 20000 kPa	829.8	793	763	739	720
353.15 K, 25000 kPa	834	797.2	767.2	743.1	724.1
353.15 K, 30000 kPa	838	801.2	771.2	747.1	728.1
353.15 K, 35000 kPa	841.7	805	775	750.9	731.9
353.15 K, 40000 kPa	845.3	808.6	778.6	754.5	735.4
353.15 K, 50000 kPa	852.1	815.4	785.4	761.3	742.2
353.15 K, 60000 kPa	858.5	821.8	791.8	767.6	748.5
363.15 K, 100 kPa	802.2	765.1	735.2	711.3	692.3
363.15 K, 1000 kPa	803.3	766.2	736.4	712.5	693.5
363.15 K, 3000 kPa	805.5	768.6	738.8	714.9	695.9
363.15 K, 5000 kPa	807.6	770.8	741	717.1	698.2
363.15 K, 10000 kPa	812.4	775.7	745.9	722	703
363.15 K, 15000 kPa	817.6	781	751.2	727.4	708.5
363.15 K, 20000 kPa	821.8	785.3	755.6	731.7	712.8
363.15 K, 25000 kPa	826	789.5	759.8	735.9	717
363.15 K, 30000 kPa	830.2	793.8	764.1	740.2	721.4
363.15 K, 35000 kPa	834.2	797.8	768.1	744.3	725.4
363.15 K, 40000 kPa	838.1	801.7	772	748.2	729.3
363.15 K, 50000 kPa	845.2	808.8	779.1	755.2	736.3
363.15 K, 60000 kPa	852	815.6	785.8	761.8	742.9
